SMILES strings stand for the structures. Like-named read-outs stand apart in the source and are kept apart here.

For experiment [1], the target named is T1, human NPR1 (Homo sapiens, UniProt P16066).
T1 construct: host or cells: CHO-K1
T1 sequence (P16066 33-1061): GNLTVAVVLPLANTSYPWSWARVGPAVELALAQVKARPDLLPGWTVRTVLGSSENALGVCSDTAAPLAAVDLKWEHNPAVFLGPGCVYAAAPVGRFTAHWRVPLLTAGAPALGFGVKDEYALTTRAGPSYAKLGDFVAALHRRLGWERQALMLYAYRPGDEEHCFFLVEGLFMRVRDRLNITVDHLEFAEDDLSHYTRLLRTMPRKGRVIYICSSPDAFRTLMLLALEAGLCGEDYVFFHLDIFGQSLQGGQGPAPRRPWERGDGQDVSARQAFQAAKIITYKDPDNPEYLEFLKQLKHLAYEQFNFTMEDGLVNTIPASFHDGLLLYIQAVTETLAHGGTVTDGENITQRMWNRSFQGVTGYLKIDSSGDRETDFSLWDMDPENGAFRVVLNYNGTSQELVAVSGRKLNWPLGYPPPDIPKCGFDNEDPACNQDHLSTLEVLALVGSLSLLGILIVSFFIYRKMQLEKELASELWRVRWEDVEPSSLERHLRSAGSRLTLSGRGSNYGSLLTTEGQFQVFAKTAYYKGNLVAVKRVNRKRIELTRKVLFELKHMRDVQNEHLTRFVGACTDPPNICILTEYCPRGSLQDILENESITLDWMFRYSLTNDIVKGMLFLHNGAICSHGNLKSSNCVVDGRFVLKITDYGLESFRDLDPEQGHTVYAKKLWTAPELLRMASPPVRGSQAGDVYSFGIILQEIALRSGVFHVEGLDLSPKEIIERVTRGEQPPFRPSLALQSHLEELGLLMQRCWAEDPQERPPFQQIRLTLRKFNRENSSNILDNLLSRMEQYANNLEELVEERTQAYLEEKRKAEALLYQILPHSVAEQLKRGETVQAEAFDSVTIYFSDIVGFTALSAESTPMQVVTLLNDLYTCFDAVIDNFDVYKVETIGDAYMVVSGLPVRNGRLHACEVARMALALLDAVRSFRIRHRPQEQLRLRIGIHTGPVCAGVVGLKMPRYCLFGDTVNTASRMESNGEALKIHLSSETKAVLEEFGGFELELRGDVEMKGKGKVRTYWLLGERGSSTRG
Nature of the experiment: Cellular cGMP production assay, human NPR1 expressing CHO-K1 cells (CisBio HTRF). Type of experiment: cell-based. Particulars: for AC50: cGMP production, 30 min at 37° C., 12-point dose-response from 30 μM; for Human NPR1 Amax (% of ANP): maximum cGMP production as percentage of the maximum cGMP produced with ANP. An outline of the steps:
(§1)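 CHO-K1 cells expressing human or cynomolgus NPR1 treated with compound (12-point, 3-fold dilutions from 30 μM top) in PBS+0.1% BSA with 1 mM IBMX, 30 min at 37° C. After lysis, cGMP quantified by HTRF competition (cGMP-d2/anti-cGMP-cryptate, 1 h RT, 665 nm emission) against a calibrator standard curve.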
(In TR-FRET formats the signal depends on donor and acceptor labels being close together.)

Experiment [2] concerns the target monkey NPR1 (Macaca fascicularis, UniProt A0A7N9DBT9). Description: Cellular cGMP production assay, monkey NPR1 expressing CHO-K1 cells (CisBio HTRF). The experiment is classed as cell-based. Particulars: for Monkey NPR1 Amax (% of ANP): maximum cGMP production as percentage of the maximum cGMP produced with ANP. An outline of the steps: as §1
[3] abbreviates: cGMP production, monkey NPR1 CHO-K1 cells, 30 min at 37° C., 12-point dose-response from 30 μM, read-out: Monkey NPR1 AC50.

Chain of monkey NPR1 (A0A7N9DBT9 entry or part of it): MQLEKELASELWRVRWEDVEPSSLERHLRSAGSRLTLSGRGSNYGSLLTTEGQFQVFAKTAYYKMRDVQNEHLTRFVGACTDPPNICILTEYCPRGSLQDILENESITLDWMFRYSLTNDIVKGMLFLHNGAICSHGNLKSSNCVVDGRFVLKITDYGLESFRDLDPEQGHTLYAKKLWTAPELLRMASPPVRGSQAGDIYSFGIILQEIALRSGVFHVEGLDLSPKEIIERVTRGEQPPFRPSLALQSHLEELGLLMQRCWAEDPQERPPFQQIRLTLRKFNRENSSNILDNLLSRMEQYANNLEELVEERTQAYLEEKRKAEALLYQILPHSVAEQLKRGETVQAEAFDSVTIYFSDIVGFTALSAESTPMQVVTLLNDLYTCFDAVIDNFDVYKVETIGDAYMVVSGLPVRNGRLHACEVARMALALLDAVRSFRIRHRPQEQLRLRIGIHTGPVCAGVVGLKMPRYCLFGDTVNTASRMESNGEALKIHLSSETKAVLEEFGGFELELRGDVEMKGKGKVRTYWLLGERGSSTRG

For `CC[C@H](N(C)c1nc2c(c(N[C@@H](CN3CCC[C@H](CF)C3)c3cnn(C)c3)n1)C[C@](C)(c1ccccc1)CC2)C12CC(C(=O)O)(C1)C2` [Compound 43, 3-((S)-1-(((R)-4-(((R)-2-((S)-3-(fluoromethyl)piperidin-1-yl)-1-(1-methyl-1H-pyrazol-4-yl)ethyl)amino)-6-methyl-6-phenyl-5,6,7,8-tetrahydroquinazolin-2-yl)(methyl)amino)propyl)bicyclo[1.1.1]pentane-1-carboxylic acid], in experiment [1], the AC50 turned out to be 0.17 µM and the “Human NPR1 Amax (% of ANP)” value is on record as 101.178 % of ANP. Moreover, the AC50 in experiment [2] (setting [3]) came to 0.158 µM. Further, the “Monkey NPR1 Amax (% of ANP)” value in experiment [2] (monkey NPR1 CHO-K1 cells) is given as 104.036 % of ANP.
The matching figures for `CC[C@@H](N(C)c1nc2c(c(N[C@@H](CN3CCC[C@H](C)C3)c3cnn(C)c3)n1)C[C@H](c1ccccc1)CC2)C12CC(C(=O)O)(C1)C2` [Compound 44, 3-((R)-1-(methyl((R)-4-(((R)-1-(1-methyl-1H-pyrazol-4-yl)-2-((S)-3-methylpiperidin-1-yl)ethyl)amino)-6-phenyl-5,6,7,8-tetrahydroquinazolin-2-yl)amino)propyl)bicyclo[1.1.1]pentane-1-carboxylic acid]: 0.173 µM, 99.256 % of ANP, 0.102 µM and 107.199 % of ANP.
The matching figures for `CC[C@@H](Nc1nc2c(c(N[C@@H](CN3CCCCC3)c3cnn(CC)c3)n1)C[C@H](c1ccccc1)CC2)[C@H]1CC[C@H](C(=O)O)CC1` [Compound 45, (1R,4r)-4-((R)-1-(((R)-4-(((R)-1-(1-ethyl-1H-pyrazol-4-yl)-2-(piperidin-1-yl)ethyl)amino)-6-phenyl-5,6,7,8-tetrahydroquinazolin-2-yl)amino)propyl)cyclohexane-1-carboxylic acid]: 0.175 µM, 98.472 % of ANP, 0.125 µM and 99.911 % of ANP.
For `CC[C@@H](N(C)c1nc2c(c(N[C@@H](CN3CCC[C@H](C)C3)c3cnn(C)c3C)n1)C[C@H](c1cccc(F)c1)CC2)C12CC(C(=O)O)(C1)C2` [Compound 46] the same measures were 0.179 µM, 93.728 % of ANP, 0.146 µM and 101.294 % of ANP.
For the compound `C[C@H]1CCCN(C[C@H](Nc2nc(N(C)[C@H](C3CC3)[C@H]3CC[C@H](C(=O)O)CC3)nc3c2C[C@H](c2cccc(F)c2)CC3)c2cnn(C)c2)C1` [Compound 47, (1R,4r)-4-((R)-cyclopropyl(((R)-6-(3-fluorophenyl)-4-(((R)-1-(1-methyl-1H-pyrazol-4-yl)-2-((S)-3-methylpiperidin-1-yl)ethyl)amino)-5,6,7,8-tetrahydroquinazolin-2-yl)(methyl)amino)methyl)cyclohexane-1-carboxylic acid], in experiment [1], the activity was half-maximal at 0.18 µM (AC50) and the “Human NPR1 Amax (% of ANP)” value is given as 101.280 % of ANP. In addition, the AC50 in experiment [2] (setting [3]) turned out to be 0.097 µM. For the same compound, in experiment [2] (monkey NPR1 CHO-K1 cells), the “Monkey NPR1 Amax (% of ANP)” value is listed as 96.550 % of ANP.
The matching figures for `CC[C@H]([C@H]1CC[C@H](C(=O)O)CC1)N(C)c1nc2c(c(N[C@@H](CN3CCC[C@H](C)C3)c3cnn(C)c3)n1)C[C@H](c1ccccc1F)CC2` [Compound 48, (1R,4r)-4-((R)-1-(((R)-6-(2-fluorophenyl)-4-(((R)-1-(1-methyl-1H-pyrazol-4-yl)-2-((S)-3-methylpiperidin-1-yl)ethyl)amino)-5,6,7,8-tetrahydroquinazolin-2-yl)(methyl)amino)propyl)cyclohexane-1-carboxylic acid]: 0.183 µM, 106.036 % of ANP, 0.101 µM and 101.062 % of ANP.
Regarding `CC[C@@H](Nc1nc2c(c(N[C@@H](CN3C4CCCC3CC4)c3ccccc3)n1)C[C@H](c1ccccc1)CC2)[C@H]1CC[C@H](C(=O)O)CC1` [Compound 49, (1R,4r)-4-((1R)-1-(((6R)-4-(((1R)-2-(8-azabicyclo[3.2.1]octan-8-yl)-1-phenylethyl)amino)-6-phenyl-5,6,7,8-tetrahydroquinazolin-2-yl)amino)propyl)cyclohexane-1-carboxylic acid], in experiment [1], the activity was half-maximal at 0.185 µM (AC50) and the “Human NPR1 Amax (% of ANP)” value is recorded as 104.186 % of ANP. In experiment [2], the activity was half-maximal at 0.138 µM (AC50). For the same compound, the “Monkey NPR1 Amax (% of ANP)” value in experiment [2] (monkey NPR1 CHO-K1 cells) is 106.033 % of ANP.
For `CC[C@@H](Nc1nc2c(c(N[C@@H](CN3CCCCC3)c3cnn(CC)c3)n1)C[C@@H](c1cccc(F)c1)CC2)[C@H]1CC[C@H](C(=O)O)CC1` [Compound 50, (1R,4r)-4-((R)-1-(((S)-4-(((R)-1-(1-ethyl-1H-pyrazol-4-yl)-2-(piperidin-1-yl)ethyl)amino)-6-(3-fluorophenyl)-5,6,7,8-tetrahydroquinazolin-2-yl)amino)propyl)cyclohexane-1-carboxylic acid], in experiment [1], the activity was half-maximal at 0.187 µM (AC50) and the “Human NPR1 Amax (% of ANP)” value was 93.357 % of ANP. Moreover, the AC50 in experiment [2] (setting [3]) came to 0.135 µM. The “Monkey NPR1 Amax (% of ANP)” value in experiment [2] (monkey NPR1 CHO-K1 cells) is 107.881 % of ANP.
For `CC[C@@H](Nc1nc2c(c(N[C@@H](CN3CCCCCC3)c3cnn(C)c3)n1)C[C@H](c1ccccc1)CC2)[C@H]1CC[C@H](C(=O)O)CC1` [Compound 51, (1R,4r)-4-((R)-1-(((R)-4-(((R)-2-(azepan-1-yl)-1-(1-methyl-1H-pyrazol-4-yl)ethyl)amino)-6-phenyl-5,6,7,8-tetrahydroquinazolin-2-yl)amino)propyl)cyclohexane-1-carboxylic acid] the same measures were 0.187 µM, 106.105 % of ANP, 0.11 µM and 104.734 % of ANP.
For the compound `CC[C@H]([C@H]1CC[C@H](C(=O)O)CC1)N(C)c1nc2c(c(N[C@@H](CN3C4CCCC3CCC4)c3cnn(CC)c3)n1)C[C@@H](c1cccc(F)c1)CC2` [Compound 52, (1R,4r)-4-((R)-1-(((S)-4-(((R)-2-((1S,5S)-9-azabicyclo[3.3.1]nonan-9-yl)-1-(1-ethyl-1H-pyrazol-4-yl)ethyl)amino)-6-(3-fluorophenyl)-5,6,7,8-tetrahydroquinazolin-2-yl)(methyl)amino)propyl)cyclohexane-1-carboxylic acid], in experiment [1], the AC50 was found to be 0.188 µM and the “Human NPR1 Amax (% of ANP)” value was 97.880 % of ANP. Further, half-maximal activity in experiment [2] (AC50) was put at 0.167 µM. For the same compound, in experiment [2] (monkey NPR1 CHO-K1 cells), the “Monkey NPR1 Amax (% of ANP)” value is recorded as 106.496 % of ANP.
With `CC[C@H]([C@H]1CC[C@H](C(=O)O)CC1)N(C)c1nc2c(c(N[C@@H](CN3CCC[C@H](C)C3)c3ccc(=O)n(C)c3)n1)C[C@H](c1cccc(F)c1)CC2` [Compound 53, (1R,4r)-4-((R)-1-(((R)-6-(3-fluorophenyl)-4-(((R)-1-(1-methyl-6-oxo-1,6-dihydropyridin-3-yl)-2-((S)-3-methylpiperidin-1-yl)ethyl)amino)-5,6,7,8-tetrahydroquinazolin-2-yl)(methyl)amino)propyl)cyclohexane-1-carboxylic acid], the results for the AC50 in experiment [1] and in experiment [2] (setting [3]) were 0.19 µM and 0.101 µM, respectively. Further, the “Human NPR1 Amax (% of ANP)” value in experiment [1] was 101.185 % of ANP. Besides, in experiment [2] (monkey NPR1 CHO-K1 cells), the “Monkey NPR1 Amax (% of ANP)” value is reported as 101.261 % of ANP.
For `CC[C@H]([C@H]1CC[C@H](C(=O)O)CC1)N(C)c1nc2c(c(N[C@@H](CN3CCC[C@H](C(F)F)C3)c3cnn(C)c3)n1)C[C@H](c1cccc(F)c1)CC2` [Compound 54, (1R,4r)-4-((R)-1-(((R)-4-(((R)-2-((S)-3-(difluoromethyl)piperidin-1-yl)-1-(1-methyl-1H-pyrazol-4-yl)ethyl)amino)-6-(3-fluorophenyl)-5,6,7,8-tetrahydroquinazolin-2-yl)(methyl)amino)propyl)cyclohexane-1-carboxylic acid] the same measures were 0.194 µM, 0.174 µM, 95.979 % of ANP and 103.704 % of ANP.

The AC50 is the midpoint of the concentration-response curve, whichever way the signal moves.
